Target: T1, Tyrosine-protein phosphatase non-receptor type 1 (Homo sapiens, UniProt P18031)
T1 sequence (P18031 whole entry): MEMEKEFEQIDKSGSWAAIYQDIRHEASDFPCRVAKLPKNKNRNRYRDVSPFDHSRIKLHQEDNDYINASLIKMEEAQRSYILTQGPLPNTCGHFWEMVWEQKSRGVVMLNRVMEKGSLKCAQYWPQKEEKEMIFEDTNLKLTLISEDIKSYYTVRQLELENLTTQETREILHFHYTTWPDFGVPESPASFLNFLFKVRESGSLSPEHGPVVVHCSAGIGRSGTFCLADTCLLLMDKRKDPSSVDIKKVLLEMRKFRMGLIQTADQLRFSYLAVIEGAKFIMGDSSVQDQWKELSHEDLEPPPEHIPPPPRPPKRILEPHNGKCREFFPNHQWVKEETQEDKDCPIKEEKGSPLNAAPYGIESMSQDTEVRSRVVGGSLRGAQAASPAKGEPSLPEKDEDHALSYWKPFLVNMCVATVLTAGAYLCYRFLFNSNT
Experiment: Inhibition of human recombinant PTP1B using pNPP substrate at 37 degC measured after 30 mins

IC50 | SMILES
29.8 µM | COc1cc(O)ccc1/C=C1\SC(=O)NC1=O
11.3 µM | COc1cc(O)c(Br)cc1/C=C1\SC(=O)NC1=O
14.2 µM | COc1cc(OC)c(/C=C2\SC(=O)NC2=O)cc1Br
8.1 µM | C=CCOc1cc(OC)c(/C=C2\SC(=O)NC2=O)cc1Br
5.3 µM | COc1cc(OCC=C(C)C)c(Br)cc1/C=C1\SC(=O)NC1=O
4.9 µM | CCCCOc1cc(OC)c(/C=C2\SC(=O)NC2=O)cc1Br
7.6 µM | COc1cc(OCc2ccccc2)c(Br)cc1/C=C1\SC(=O)NC1=O
22.3 µM | COc1cc(OC)c(/C=C2\SC(=O)N(C)C2=O)cc1Br
8.1 µM | COc1cc(OCc2ccccc2)c(Br)cc1/C=C1\SC(=O)N(C)C1=O
8.2 µM | COc1cc(OCC=C(C)C)c(Br)cc1/C=C1\SC(=O)N(C)C1=O
17 µM | C=CCN1C(=O)S/C(=C\c2cc(Br)c(OCC=C(C)C)cc2OC)C1=O
4.6 µM | COc1cc(OCC=C(C)C)c(Br)cc1/C=C1\SC(=O)N(C(C)C)C1=O
12.3 µM | CCCCN1C(=O)S/C(=C\c2cc(Br)c(OCC=C(C)C)cc2OC)C1=O
10 µM | COc1cc(OCC=C(C)C)c(Br)cc1/C=C1\SC(=O)N(CC=C(C)C)C1=O
10.3 µM | COc1cc(OCC=C(C)C)c(Br)cc1/C=C1\SC(=O)N(Cc2ccccc2)C1=O
12.1 µM | CCCCOc1cc(OC)c(/C=C2\SC(=O)N(C)C2=O)cc1Br
7.9 µM | C=CCN1C(=O)S/C(=C\c2cc(Br)c(OCCCC)cc2OC)C1=O

IC50 | SMILES
9.7 µM | CCCCOc1cc(OC)c(/C=C2\SC(=O)N(C(C)C)C2=O)cc1Br
> 30 µM | CCCCOc1cc(OC)c(/C=C2\SC(=O)N(CCCC)C2=O)cc1Br
6.6 µM | CCCCOc1cc(OC)c(/C=C2\SC(=O)N(Cc3ccccc3)C2=O)cc1Br
12.2 µM | C=CCc1cc(/C=C2\SC(=O)NC2=O)c(OC)cc1OC1CCCCO1 (centres undefined)
> 30 µM | C=CCc1cc(/C=C2\SC(=O)N(C)C2=O)c(OC)cc1OC1CCCCO1 (centres undefined)
> 30 µM | C=CCc1cc(/C=C2\SC(=O)N(C(C)C)C2=O)c(OC)cc1OC1CCCCO1 (centres undefined)
> 30 µM | C=CCc1cc(/C=C2\SC(=O)N(CC=C)C2=O)c(OC)cc1OC1CCCCO1 (centres undefined)
22.7 µM | C=CCc1cc(/C=C2\SC(=O)N(CC=C(C)C)C2=O)c(OC)cc1OC1CCCCO1 (centres undefined)
20.6 µM | C=CCc1cc(/C=C2\SC(=O)N(CCCC)C2=O)c(OC)cc1OC1CCCCO1 (centres undefined)
> 30 µM | C=CCc1cc(/C=C2\SC(=O)N(Cc3ccccc3)C2=O)c(OC)cc1OC1CCCCO1 (centres undefined)
> 30 µM | C=CCc1cc(/C=C2\SC(=O)N(C)C2=O)c(OC)cc1O
6.4 µM | C=CCc1cc(/C=C2\SC(=O)N(C(C)C)C2=O)c(OC)cc1O
> 30 µM | C=CCc1cc(/C=C2\SC(=O)N(CC=C)C2=O)c(OC)cc1O
12 µM | C=CCc1cc(/C=C2\SC(=O)N(CC=C(C)C)C2=O)c(OC)cc1O
9.6 µM | C=CCc1cc(/C=C2\SC(=O)N(CCCC)C2=O)c(OC)cc1O
7.2 µM | C=CCc1cc(/C=C2\SC(=O)N(Cc3ccccc3)C2=O)c(OC)cc1O
29.3 µM | C=CCc1cc(/C=C2\SC(=O)NC2=O)c(OC)cc1O

Reference: ChEMBL document CHEMBL3351993, “Design, synthesis and docking study of 5-(substituted benzylidene)thiazolidine-2,4-dione derivatives as inhibitors of protein tyrosine phosphatase 1B” (Bioorg Med Chem Lett, 2014)
